We go through 13 compounds from US20220332699A1 (SAGE THERAPEUTICS, INC., priority 2019, published 2022).

Sequence of CYP46A1 (Q9Y6A2 whole entry): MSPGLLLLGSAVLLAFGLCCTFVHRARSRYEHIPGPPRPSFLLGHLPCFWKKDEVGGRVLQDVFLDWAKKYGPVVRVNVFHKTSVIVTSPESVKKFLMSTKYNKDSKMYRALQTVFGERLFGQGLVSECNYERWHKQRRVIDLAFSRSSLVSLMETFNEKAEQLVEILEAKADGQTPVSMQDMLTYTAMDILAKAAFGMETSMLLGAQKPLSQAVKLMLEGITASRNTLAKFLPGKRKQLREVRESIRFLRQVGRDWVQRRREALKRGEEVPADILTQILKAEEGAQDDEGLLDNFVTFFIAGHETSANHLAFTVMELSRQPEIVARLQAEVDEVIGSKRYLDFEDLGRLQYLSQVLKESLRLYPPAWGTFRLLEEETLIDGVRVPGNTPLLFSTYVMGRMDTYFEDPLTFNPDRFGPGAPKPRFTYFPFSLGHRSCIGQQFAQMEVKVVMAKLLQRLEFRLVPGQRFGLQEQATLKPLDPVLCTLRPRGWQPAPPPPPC

This assay addresses CYP46A1 (Homo sapiens, UniProt Q9Y6A2). Briefly: CYP46A1 Enzyme Assay 2 (testosterone substrate, HPLC-MS). It counts as biochemical. The note with it: read-out: IC50 (CYP46A1 inhibitory activity). Here is the method: Briefly, in a 384-well plate format, 10 μL per well of an enzyme-substrate mixture of CYP46A1 (5 μM final concentration) and Testosterone ([…] final concentration) were dispensed to wells containing test compound. For CYP46A1 titration, 5 μL per well of serially diluted CYP46A1 (concentrations including 10 μM, 5 μM, and 2.5 μM) and Testosterone (concentration of […]) were dispensed. For Testosterone titration, 5 μL per well of serially diluted Testosterone (concentrations including 10 μM, 5 μM, and 2.5 μM) and CYP46A1 (concentration of 5 μM) were dispensed. The plates were centrifuged at 1000 rpm for 30 seconds, and then sealed and incubated at 37° C. for 30 minutes. The plate was removed from the incubator, and then 10 μL per well of NADPH-generating system were dispensed to initiate the reaction. The plates were incubated at 37° C. for 15 minutes, added with 80 μL per well of 100% methanol consisting 1 ng/ml diclofenac as internal standard, and then transferred for HPLC-MS.
Broadly, the IC50 is the concentration that inhibits the measured activity by half. `CC(c1cc(F)cc(F)c1)C1(C#N)CCN(C(=O)c2cccnc2-c2ccncn2)CC1` (stereo in doubt) [Compound A257, (S)-4-(1-(3,5-difluorophenyl)ethyl)-1-(2-(pyrimidin-4-yl)nicotinoyl)piperidine-4-carbonitrile]: the IC50 was below 0.1 µM. For `CC(c1cc(F)cc(F)c1)C1(C#N)CCN(C(=O)c2cccnc2-c2ccncn2)CC1` (stereo in doubt) [Compound A258, (R)-4-(1-(3,5-difluorophenyl)ethyl)-1-(2-(pyrimidin-4-yl)nicotinoyl)piperidine-4-carbonitrile] the value was below 0.1 µM; for `CC(c1cc(F)cc(F)c1)C1(C#N)CCN(C(=O)c2cccnc2-c2ccncc2)CC1` (stereo in doubt) [Compound A259, (S)-1-([2,4′-bipyridine]-3-carbonyl)-4-(1-(3,5-difluorophenyl)ethyl)piperidine-4-carbonitrile], below 0.1 µM; for `CC(c1cc(F)cc(F)c1)C1(C#N)CCN(C(=O)c2cccnc2-c2ccncc2)CC1` (stereo in doubt) [Compound A260, (R)-1-([2,4′-bipyridine]-3-carbonyl)-4-(1-(3,5-difluorophenyl)ethyl)piperidine-4-carbonitrile], below 0.1 µM. On to `CC(c1ccc(C(F)(F)F)cc1)C1(C#N)CCN(C(=O)c2cccnc2-c2ccncc2)CC1` (stereo in doubt) [Compound A268, (R)-1-([2,4′-bipyridine]-3-carbonyl)-4-(1-(4-(trifluoromethyl)phenyl)ethyl)piperidine-4-carbonitrile], for which the IC50 was below 0.1 µM. On to `CC(c1ccc(C(F)(F)F)cc1)C1(C#N)CCN(C(=O)c2cccnc2-c2ccncc2)CC1` (stereo in doubt) [Compound A269, (S)-1-([2,4′-bipyridine]-3-carbonyl)-4-(1-(4-(trifluoromethyl)phenyl)ethyl)piperidine-4-carbonitrile], for which the IC50 was below 0.1 µM. For `CC(c1c(F)cc(F)cc1F)C1(C#N)CCN(C(=O)c2cccnc2-c2ccncn2)CC1` (stereo in doubt) [Compound A270, (S)-1-(2-(pyrimidin-4-yl)nicotinoyl)-4-(1-(2,4,6-trifluorophenyl)ethyl)piperidine-4-carbonitrile] the value was below 0.1 µM. For `CC(c1c(F)cc(F)cc1F)C1(C#N)CCN(C(=O)c2cccnc2-c2ccncn2)CC1` (stereo in doubt) [Compound A271, (R)-1-(2-(pyrimidin-4-yl)nicotinoyl)-4-(1-(2,4,6-trifluorophenyl)ethyl)piperidine-4-carbonitrile] the value was below 0.1 µM. For `N#CC1(Cc2ccc(OC(F)(F)F)cc2)CCN(C(=O)c2cccnc2-c2ccncc2)CC1` [Compound A10, 1-([2,4′-bipyridine]-3-carbonyl)-4-(4-(trifluoromethoxy)benzyl)piperidine-4-carbonitrile] the value was below 0.1 µM; for `N#CC1(Cc2ccc(Cl)cc2F)CCN(C(=O)c2cccnc2-c2ccncc2)CC1` [Compound A11, 1-{[2,4′-bipyridine]-3-carbonyl}-4-[(4-chloro-2-fluorophenyl)methyl]piperidine-4-carbonitrile], below 0.1 µM. As for `N#CC1(Cc2ccccc2F)CCN(C(=O)c2cccnc2-c2ccncc2)CC1` [Compound A12, 1-{[2,4′-bipyridine]-3-carbonyl}-4-[(2-fluorophenyl)methyl]piperidine-4-carbonitrile], the half-inhibitory concentration (IC50) was below 0.1 µM. For `N#CC1(Cc2cccc(F)c2)CCN(C(=O)c2cccnc2-c2ccncc2)CC1` [Compound A13, 1-{[2,4′-bipyridine]-3-carbonyl}-4-[(3-fluorophenyl)methyl]piperidine-4-carbonitrile] the value was below 0.1 µM; for `N#CC1(Cc2ccc(F)cc2)CCN(C(=O)c2cccnc2-n2ccnc2)CC1` [Compound A16, 1-(2-(1H-imidazol-1-yl)nicotinoyl)-4-(4-fluorobenzyl)piperidine-4-carbonitrile], above 1 µM.
